Data set [1] relates to HepG2 (Hepatocellular carcinoma cells). The data set can be described thus: Cytotoxicity evaluation using viability assay (crystal violet) against HepG2 cell line. Format: cell-based, human. The following applies: for Viability %: 48 hours; for IC50: Homo sapiens, HepG2 cells, 48 hours incubation, crystal violet viability, read-out: inhibition concentration value (IC50) against HepG2. The text has this:
HepG2 cells (human cell line of a well differentiated hepatocellular carcinoma isolated from a liver biopsy of a person) were obtained from the American Type Culture Collection (ATCC). The chemicals used were: Dimethyl sulfoxide (DMSO), crystal violet and trypan blue dye, purchased from Sigma, St. Louis, Mo., USA; DMEM, RPMI-1640, FBS, HEPES buffer solution, L-glutamine, gentamycin and 0.25% Trypsin-EDTA, purchased from BioWhittaker®, Lonza, Belgium; and Crystal violet stain (1%), composed of 0.5% (w/v) crystal violet and 50% methanol, made up to volume with ddH20 and filtered through a Whatmann No. I filter paper.
In the cytotoxicity assay, the cells were propagated in Dulbecco's modified Eagle's medium (DMEM) supplemented with 10% heat-inactivated fetal bovine serum, 1% L-glutamine, HEPES buffer and 50 μg/ml gentamycin. All cells were maintained at 37° C. in a humidified atmosphere with 5% C02 and were subcultured two times a week.
Cell toxicity was monitored by determining the effect of the test samples on cell morphology and cell viability.
For cytotoxicity assay, the cells were seeded in a 96-well plate at a cell concentration of 1×10^4 cells per well in 100 μl of growth medium. Fresh medium containing different concentrations of the test sample was added after 24 hours following seeding. Serial two-fold dilutions of the tested chemical compound were added to confluent cell monolayers dispensed into 96-well, flat-bottomed microtiter plates (Falcon, N.J., USA) using a multichannel pipette. The microtiter plates were incubated at 37° C. in a humidified incubator with 5% C02 for a period of 48 hours. Three wells were used for each concentration of the test sample. Control cells were incubated without test sample and with or without DMSO. The little percentage of DMSO present in the wells (maximal 0.1%) was found not to affect the experiment. After incubation of the cells for 24 hours at 37° C., various concentrations of sample (50, 25, 12.5, 6.25, 3.125 & 1.56 μg) were added, and the incubation was continued for 48 hours and viable cells yield was determined by a colorimetric method.
In brief, after the end of the incubation period, media were aspirated and the crystal violet solution (1%) was added to each well for at least 30 minutes. The stain was removed and the plates were rinsed using tap water until all excess stain was removed. Glacial acetic acid (30%) was then added to all wells and mixed thoroughly and then the absorbance of the plates was measured after being gently shaken on a Microplate reader (TECAN, Inc.), using a test wavelength of 490 nm. All results were corrected for background absorbance detected in wells without added stain. Treated samples were compared with the cell control in the absence of the tested compounds. All experiments were carried out in triplicate.
The cell cytotoxic effect of each tested compound was calculated according to the rapid colorimetric assay for cellular growth and survival: application to proliferation and cytotoxicity assay, published by T. Mosmann in the Journal of Immunology Methods, 1983, 65:55-63; and the antiviral activity of medicinal plants of Nilgriris, published by P. Vijayan et al. in the Indian Journal of Medical Research, 2004, 120: 24-29.

For data set [2] the test system is unchanged. In words: Cytotoxicity evaluation using viability assay (crystal violet) against HepG2 cell line. It counts as cell-based, human. The following applies: 48 hours.

The source of these data is patent US9447119B2, “Chemical compound for inhibiting the growth and proliferation of human liver cancer cells HepG2 and method for synthesizing it” (priority 2015, dated 2016).

Each structure is given as a SMILES string. Converted amounts (≈) assume the structure as drawn. Where only a bound is given, the exact number is not on record here.

In turn, `O=c1c2c3c(sc2nc2sc(Nc4ccc([N+](=O)[O-])cc4)nn12)CCCCC3` [compound of the invention, 2-((4-Nitrophenyl)amino)-7,8,9,10-tetrahydrocyclohepta[4,5]thieno[2,3-d][1,3,4]thiadiazolo[3,2-a]pyrimidin-11(6H)-one] displayed a melting point of over 300 °C. Further, the Viability % in data set [1] (HepG2, sample conc. 1.56 μg) is 32.86%. Also, the Viability % in data set [1] (HepG2, sample conc. 3.125 μg) was determined as 23.17%. The molecule also registered a Viability % in data set [1] (HepG2, sample conc. 6.25 μg) of 13.92%. In data set [1] (HepG2, sample conc. 12.5 μg), the Viability % was 10.04%. This molecule also yielded a Viability % in data set [1] (HepG2, sample conc. 25 μg) of 7.52%. The molecule also registered a Viability % in data set [1] (HepG2, sample conc. 50 μg) of 3.79%. In addition, in data set [1], the IC50 was 0.7 µg/mL (≈ 1.69 µM). In data set [2] (HepG2, sample conc. 0.39 μg), this molecule returned a Viability % of 64.21%. Also, the Viability % in data set [2] (HepG2, sample conc. 0.78 μg) is given as 45.74%.

Turning to `COc1cccc2c1C(=O)c1c(O)c3c(c(O)c1C2=O)C[C@@](O)(C(=O)CO)C[C@@H]3O[C@H]1C[C@H](N)[C@H](O)[C@H](C)O1` [Doxorubicin, reference compound], the Viability % came out at 48.25% in data set [1] (HepG2, sample conc. 1.56 μg); 30.32% in data set [1] (HepG2, sample conc. 3.125 μg); 21.03% in data set [1] (HepG2, sample conc. 6.25 μg); 16.90% in data set [1] (HepG2, sample conc. 12.5 μg); 14.29% in data set [1] (HepG2, sample conc. 25 μg); 10.95% in data set [1] (HepG2, sample conc. 50 μg). For the same molecule, in data set [2] (HepG2, sample conc. 0.78 μg), the Viability % is recorded as 57.44%. The IC50 in data set [1] was 1.2 µg/mL (≈ 2.21 µM).

Broadly, the melting point is the temperature of the solid-liquid transition.
